Assays:
[1] = system: human hepatoblastoma (HepG2) cells; details: Lange 1994; cited from earlier work
fibroblast monolayers = assay: Influx/uptake of ^3 H-FC (free cholesterol) from labeled LDL (or plasma, HDL) into normal fibroblast monolayers; format: cell-based, human
fibroblast ACAT = details: 30 μM; Goldstein et al. 1978; cited from earlier work
hepatocytes = details: 30 μM; Lange 1994; cited from earlier work

CC(=O)[C@H]1CC[C@H]2[C@@H]3CCC4=CC(=O)CC[C@]4(C)[C@H]3CC[C@]12C [Progesterone]
transfer of FC from plasma membrane to cell interior [1]: promoted the transfer of FC
LDL-FC influx (discussion, words) (fibroblast monolayers): without effect
inhibition of LDL-FC pathway (summary, words) (fibroblast monolayers): not inhibited
FC Influx (fibroblast monolayers; LDL-FC 60.2 μg ml^-1, 60 min, 37° C., 30 min preequilibration with inhibitor at: Na-azide 1 mM, NH4-vanadate 1 mM, NEM 2 mM, KNO3 50 mM, progesterone 30 μM, forskolin 30 μM, IBMX 100 μM, chloroquine 20 μM): 1.28 ± 0.06 µg
effect on LDL FC uptake (fibroblast monolayers; Table 3 conditions): no effect
FC Influx, % (PBS only = 100.0) (fibroblast monolayers; same concentrations and conditions as Table 3 FC influx, 60 min): 97.3%
inhibition of fibroblast ACAT activity (fibroblast ACAT): maximally inhibit
inhibition of cholesterol transport in hepatocytes (hepatocytes): inhibit

— US5922554A, “Inhibition of cellular uptake of cholesterol” (The Regents of the University of California, priority 1996, dated 1999)
